Assay results from US20090275539A1, “Nuclear Transcription Factors Regulators” (CTG PHARMA S.R.L., priority 2004, published 2009).

Tests used:
IL-6 = test: Expression of NF-kB regulated cytokine IL-6 in HeLa cells (ELISA); assay type: cell-based; details: for Inhibition of the production of IL-6: after 120 minutes
Method: (§1) The cells were stimulated with 100 μmol of compound described in example 6 with TNF (200 E/ml) or with PMA (50 ng/ml) and the concentration of IL-6 or IL-8 was measured in the cell supernatant at various interval using ELISA (British Biotechnology Products Ltd.).

[1] = tested on: inducible nitric oxide synthase (iNOS); test: Zymosan-induced iNOS protein expression in Raw 264.7 macrophages (western blot); assay type: cell-based, murine; details: for INOS protein expression, band intensity: zymosan-stimulated Raw 264.7, 18 hrs
Method: (§2) For the screening approach it was decided to test the compounds object of the present invention and fulfilling the structural general criteria previously described for heme oxygenase-1 (OH-1) and inducible nitric oxide synthase (iNOS). The enzyme tests were performed as described by Vicente A M et al. (Br. J. Pharmacol. 2001, 133, 920-6). The formation of both these two enzymes was associated with the activation of transcription factors, and NF-kB particularly.
(§3) In brief, Raw 264.7 murine macrophage cell line were maintained in a proper culture medium supplemented with 10% fetal bovine serum, 2 mM L-glutamine and penicillin/streptomycin. Suspensions of zymosan A from Saccharomyces cerevisiae in saline were used. After incubation with zymosan and/or test compounds for 18 hrs, cells supernatants were collected to measure protein expression, by western blot analysis. After incubation, macrophages were lysed in 100 microliters of buffer (1% Triton X-100, 1% deoxicholic acid, 20 mM NaCl and 25 mM Tris, pH 7.4) and then centrifuged at 4° C. for 5 min at 10,000×g. The protein content was determined by the Bradford method using bovine serum albumin as standard. Cell lysate (40 micrograms of protein) was mixed with Laemmli sample buffer under reducing conditions. […] Membranes were incubated with specific antibodies: polyclonal antibody against iNOS (1/1000, Cayman Chemical) and anti-OH-1 monoclonal antibody (1/2000, Stressgen). Blots were washed and incubated with peroxidase-conjugated goat IgG (1/20,000). The immunoreactive bands were visualized by an enhanced chemiluminescence system and band intensity quantitated using computer-assisted densitometry.

NF-kB = test: NF-kB-CAT reporter gene assay (CAT activity); assay type: cell-based; details: test compound 100 μm; for NF-kB activity: % of CAT synthesis, TNF-stimulated: human TNF alpha 100 ng/ml
Method: The NF-kB-CAT reporter gene cell line (Lenardo M J et al., Cell 58, 227-9, 1989) and. L29/Ji6 cells (Fratelli M et al, Antioxidants & Redox Signalling 5, 229-235, 2003) were prepared as previously described. Human TNF alpha (100 ng/ml) was used. The chloramphenicol-acetyltransferase (CAT) activity was measured by adding 40 microliters of Tris-HCl buffer (250 mM, ph 7.5) and D-threo-[dichloroacetyl]1,2 ^14C chloramphenicol (10 microliters, 8.3×10^−2 mCi/sample) The reaction was started by the addition of n-butyryl coenzyme A. After 2 h at 37° C., the reaction was stopped by extraction with hexane/xylene (2:1). The upper organic phase containing the reaction product was then recovered, and radioactivity was counted on a beta-counter. The activity on NF-kB was expressed as […].

heme oxygenase-1 (OH-1) = test: Zymosan-induced OH-1 protein expression in Raw 264.7 macrophages (western blot); assay type: cell-based, murine; details: for OH-1 protein expression, band intensity: zymosan-stimulated Raw 264.7, 18 hrs
Method: as §2, §3

IL-8 = test: Expression of NF-kB regulated cytokine IL-8 in HeLa cells (ELISA); assay type: cell-based; details: for IL-8 concentration in cell supernatant: 120′; for Inhibition of the production of IL-8: after 120 minutes
Method: as §1

[2] = zymosan-stimulated Raw 264.7, summary of table I

With `CC(=O)Sc1ccccc1C(=O)Oc1ccc(CO[N+](=O)[O-])cc1` [ATANPE, acetyl thiosalicylic acid 4-(nitroxymethyl)phenyl ester] the “IL-6 concentration in cell supernatant” value (IL-6; PMA (50 ng/ml) + 100 μmol compound, 15′) was 920 pg/mL, the “IL-6 concentration in cell supernatant” value (IL-6; PMA (50 ng/ml) + 100 μmol compound, 120′) was 3138 pg/mL and the “IL-6 concentration in cell supernatant” value (IL-6; TNF (200 E/ml) + 100 μmol compound, 15′) was 945 pg/mL. The “IL-6 concentration in cell supernatant” value (IL-6; TNF (200 E/ml) + 100 μmol compound, 120′) was 1738 pg/mL, the “Inhibition of the production of IL-6” value (IL-6; first of two values printed with '(TNF stimulation)') was 87% and the “Inhibition of the production of IL-6” value (IL-6; second of two values printed with '(TNF stimulation)') was 74%. For the same compound, the “INOS protein expression, band intensity” value ([1]; concentration 10 μmol) was 48 percentage with respect to zymosan, the “Effect on iNOS formation (in words)” value [1, 2] was “inhibit iNOS formation” and the “NF-kB activity: % of CAT synthesis, Basal” value (NF-kB) was 31%. For the same compound, the “NF-kB activity: % of CAT synthesis, TNF-stimulated” value (NF-kB) was 26%, the “OH-1 protein expression, band intensity” value (heme oxygenase-1 (OH-1); concentration 10 μmol) was 293 percentage with respect to zymosan and the “Effect on OH-1 production (in words)” value (heme oxygenase-1 (OH-1); [2]) was “stimulate OH-1 production”. For the same compound, the “IL-8 concentration in cell supernatant” value (IL-8; PMA (50 ng/ml) + 100 μmol compound) was 12 pg/mL, the “IL-8 concentration in cell supernatant” value (IL-8; TNF (200 E/ml) + 100 μmol compound) was 6 pg/mL and the “Inhibition of the production of IL-8” value (IL-8; first of two values printed with '(PMA stimulation)') was 90%. The “Inhibition of the production of IL-8” value (IL-8; second of two values printed with '(PMA stimulation)') was 97%.

For `CC(=O)Oc1ccccc1C(=O)O` [Aspirin, reference compound], the “NF-kB activity: % of CAT synthesis, Basal” value (NF-kB) was 100% and the “NF-kB activity: % of CAT synthesis, TNF-stimulated” value (NF-kB) was 92%.

In the case of `COc1ccc2c(c1)c(CC(=O)O)c(C)n2C(=O)c1ccc(Cl)cc1` [Indomethacin, indomethacin], the “INOS protein expression, band intensity” value ([1]; concentration 1 μmol) was 78 percentage with respect to zymosan and the “OH-1 protein expression, band intensity” value (heme oxygenase-1 (OH-1); concentration 1 μmol) was 65 percentage with respect to zymosan.

With `C[C@@H]1C[C@H]2[C@@H]3CCC4=CC(=O)C=C[C@]4(C)[C@@]3(F)[C@@H](O)C[C@]2(C)[C@@]1(O)C(=O)CO` [Dexamethasone, dexamethasone] the “INOS protein expression, band intensity” value ([1]; concentration 1 μmol) was 85 percentage with respect to zymosan and the “OH-1 protein expression, band intensity” value (heme oxygenase-1 (OH-1); concentration 1 μmol) was 20 percentage with respect to zymosan.

With `CS(=O)(=O)Nc1ccc([N+](=O)[O-])cc1OC1CCCCC1` [NS398] the “INOS protein expression, band intensity” value ([1]; concentration 10 μmol) was 120 percentage with respect to zymosan and the “OH-1 protein expression, band intensity” value (heme oxygenase-1 (OH-1); concentration 10 μmol) was 72 percentage with respect to zymosan.

For `CC(=O)N[C@@H](CS)C(=O)O` [N-acetylcysteine], the “INOS protein expression, band intensity” value ([1]; concentration 100 μmol) was 80 percentage with respect to zymosan and the “OH-1 protein expression, band intensity” value (heme oxygenase-1 (OH-1); concentration 100 μmol) was 44 percentage with respect to zymosan.

With `CC(c1cc2ccccc2s1)N(O)C(N)=O` (stereo not shown) [Zileuton, zileuton] the “INOS protein expression, band intensity” value ([1]; concentration 10 μmol) was 112 percentage with respect to zymosan and the “OH-1 protein expression, band intensity” value (heme oxygenase-1 (OH-1); concentration 10 μmol) was 125 percentage with respect to zymosan.
